In the assay the target is T1, glucan synthase (GS) (Candida albicans, UniProt O13428).
T1 construct: Extraction of GS activity from membranes was performed at a protein concentration of 5 mg/mL in extraction buffer; endogenous in cells; host or cells: Candida albicans MY1055 (membrane fraction, detergent extract, product entrapment)
As to the kind of experiment: Glucan synthase inhibition (polymerization assay, 96-well, 3H-UDPG incorporation). It counts as biochemical. The following applies: for IC50: glucan synthase prepared from Candida albicans MY1055, 60 min incubation at 22°C, read-out: Candida Albicans GS IC50 (ng/mL) (converted). Here is the method:
The in vitro evaluation of glucan synthase inhibitory activity of compounds was measured in a polymerization assay in 96-well format. Each well contained 100 µL of ^3H-UDPG at 0.5 mM (6000 to 8000 dpm/nmol), 50 mM HEPES pH 7.5 (Sigma), 10% w/v glycerol (Sigma), 1.5 mg/mL bovine serum albumin (Sigma A 9647. Lot 44H0190), 25 mM KF (Fisher), 1 mM EDTA (Gibco ULTRAPURE), 25 µM GTP-γ-S, enzyme sufficient to give 3 to 6 nmoles incorporation during the 60 min incubation at 22°C, and test compound added from wells in 3-fold serial dilutions in 100% DMSO (1 µL/well). The reaction was stopped by the addition of 100 µL of 20% trichloroacetic acid. Plates were chilled for a minimum of 10 min, and precipitated glucan collected by filtration on GF/C plates (Packard UNIFILTER®-96), washed with 5 cycles of water (about 1 mL/well each cycle) using a Packard FILTERMATE HARVESTER. 40 µL/well scintillation fluid (Packard ULTIMA GOLD TM-XR) was added and the sealed plates counted in a WALLAC BETA counter in top-counting mode at an efficiency of approximately 40%.
Stock solutions were stored at 10 mg/mL in DMSO at -20°C. For each new enzyme preparation, the initial titration performed started at 1 mg/mL, which was prepared by making a 10-fold dilution in DMSO (5 µL to 50 µL). 40 µL of this stock was placed in column 12 of a round-bottomed 96-well microtiter plate. 40 µL DMSO was added to columns 1 to 11 in the same row and ten 3-fold serial dilutions performed, by transferring 20 µL from column 12 to column 11 etc., with 4 mixings before each transfer. No test compound was transferred to from column 2 to column 1. Duplicate aliquots of 1 µL of all 12 dilutions were then transferred to the side walls of a 96-well Bioblock 1.1 mL plate (Fisher brand) to create two rows.
Graphs of the primary data were created in PRISM software (the average of two determinations) using PRISM's curve fitting program (sigmoidal dose response non-linear regression). The amount of compound required to inhibit glucan synthase activity by 50% in this assay (IC50 - ng/mL) was calculated.
Routine analysis was performed with glucan synthase (GS) prepared from Candida albicans MY1055 by the following procedure: MY1055 was grown in 10 liters YPD medium (10 g yeast extract, 20 g tryptone, 20 g glucose per liter) with vigorous shaking at 30°C, to early stationary phase. Cells were harvested by centrifugation, the pellet was washed and frozen at -70°C until breakage. Thawed pellets were shaken with an equal volume of breakage buffer (50 mM HEPES pH 7.4, 10% glycerol, 1 mM EDTA, 1 mM PMSF, 1mM DTT) and 4 times their weight of 0.5 mm acid washed glass beads for 2 hours at 4°C. Extent of breakage was assessed visually at 40x magnification. After low speed centrifugation to remove cell debris, the supernatant was centrifuged at 100,000 x g for 60 min. to separate membranes plus ribosomes from cytoplasmic components. Membranes were further washed two additional times with breakage buffer using the same centrifugation conditions and finally suspended in breakage buffer at 25 to 30 mg/mL protein (Biorad) for storage at -70°C. Extraction of GS activity from membranes was performed at a protein concentration of 5 mg/mL in extraction buffer (50mM NaPO4 pH 7.5, 0.1 M KCl, 0.1M Na citrate, 20% glycerol, 5 µM GTP-γ-S, 1mM DTT, 1 mM PMSF, 3 µg/mL pepstatin) plus 0.25% W1 by gentle mixing at 4°C for 60 min, followed by centrifugation at 100,000 x g for 60 min. After centrifugation, clear supernatant was removed from a pellet consisting of a hard layer usually with small amounts of gelatinous unextracted membranes above it.
Trapping was initiated immediately by 5-fold dilution in trapping buffer (50 mM HEPES pH 7.5, 10 mM KF, 1 mM EDTA, 2 mg/mL BSA) plus 2.5 mM UDPG and 10µM GTP-γ-S. After incubation at 25°C for 60 to 90 minutes, glucan was harvested by low speed centrifugation (3,000 x g, 10 min). […]

pIC50: −log10 of the molar value. Like-named read-outs stand apart in the source and are kept apart here.

As usually defined, the pIC50 is the IC50 on a negative log10 scale, so that one unit is a factor of ten. Low readings indicate a large IC50, high ones a small IC50.

T1 sequence (O13428 1-1897): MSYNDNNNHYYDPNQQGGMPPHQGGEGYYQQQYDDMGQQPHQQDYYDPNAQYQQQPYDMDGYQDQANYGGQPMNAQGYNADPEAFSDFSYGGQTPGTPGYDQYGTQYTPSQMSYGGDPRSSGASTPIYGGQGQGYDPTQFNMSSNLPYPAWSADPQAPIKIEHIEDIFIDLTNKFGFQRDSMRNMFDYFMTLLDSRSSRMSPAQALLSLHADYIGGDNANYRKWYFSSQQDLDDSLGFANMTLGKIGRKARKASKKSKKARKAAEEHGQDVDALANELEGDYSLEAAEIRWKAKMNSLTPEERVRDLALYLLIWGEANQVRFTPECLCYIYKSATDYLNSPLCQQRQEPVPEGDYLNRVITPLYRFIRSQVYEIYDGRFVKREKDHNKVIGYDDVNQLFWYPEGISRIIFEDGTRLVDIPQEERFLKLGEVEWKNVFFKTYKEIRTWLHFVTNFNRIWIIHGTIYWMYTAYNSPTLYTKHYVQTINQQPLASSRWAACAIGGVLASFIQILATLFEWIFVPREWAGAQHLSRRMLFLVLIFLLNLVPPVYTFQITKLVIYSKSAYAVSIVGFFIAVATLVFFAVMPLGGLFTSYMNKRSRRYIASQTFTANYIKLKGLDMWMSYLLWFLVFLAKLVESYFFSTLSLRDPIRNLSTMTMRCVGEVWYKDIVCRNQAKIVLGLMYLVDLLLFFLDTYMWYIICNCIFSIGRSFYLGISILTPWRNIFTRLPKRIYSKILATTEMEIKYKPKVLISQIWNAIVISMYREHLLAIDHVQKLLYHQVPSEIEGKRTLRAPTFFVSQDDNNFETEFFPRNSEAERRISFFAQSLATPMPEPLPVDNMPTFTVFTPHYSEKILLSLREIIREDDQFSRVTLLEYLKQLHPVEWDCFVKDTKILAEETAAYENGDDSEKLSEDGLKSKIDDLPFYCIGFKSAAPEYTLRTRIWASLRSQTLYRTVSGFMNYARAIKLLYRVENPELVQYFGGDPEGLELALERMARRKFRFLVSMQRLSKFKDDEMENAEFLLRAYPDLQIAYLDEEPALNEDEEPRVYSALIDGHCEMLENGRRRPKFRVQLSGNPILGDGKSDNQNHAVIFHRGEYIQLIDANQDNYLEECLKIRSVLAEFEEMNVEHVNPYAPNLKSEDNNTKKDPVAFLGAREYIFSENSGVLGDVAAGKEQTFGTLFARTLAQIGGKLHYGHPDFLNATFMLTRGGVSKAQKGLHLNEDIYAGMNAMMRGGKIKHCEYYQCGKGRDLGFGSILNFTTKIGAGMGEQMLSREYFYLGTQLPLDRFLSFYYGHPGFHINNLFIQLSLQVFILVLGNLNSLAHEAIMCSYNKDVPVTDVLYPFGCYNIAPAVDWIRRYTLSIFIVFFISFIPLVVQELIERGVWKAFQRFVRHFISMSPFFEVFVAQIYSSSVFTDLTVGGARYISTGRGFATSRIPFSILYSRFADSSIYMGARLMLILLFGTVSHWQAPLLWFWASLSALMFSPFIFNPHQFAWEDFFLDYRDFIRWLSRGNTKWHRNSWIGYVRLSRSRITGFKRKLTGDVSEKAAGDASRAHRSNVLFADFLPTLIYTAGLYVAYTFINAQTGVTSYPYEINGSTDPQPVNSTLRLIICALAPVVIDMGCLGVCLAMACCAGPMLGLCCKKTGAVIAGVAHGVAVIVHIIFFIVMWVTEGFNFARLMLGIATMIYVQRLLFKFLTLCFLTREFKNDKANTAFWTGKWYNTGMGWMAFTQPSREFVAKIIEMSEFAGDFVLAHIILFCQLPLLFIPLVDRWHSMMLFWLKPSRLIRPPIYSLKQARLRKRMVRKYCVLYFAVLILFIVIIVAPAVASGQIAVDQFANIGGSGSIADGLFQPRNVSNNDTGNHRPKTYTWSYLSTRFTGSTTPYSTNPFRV
T1 sequence (O42825 1-195 partner limits assumed): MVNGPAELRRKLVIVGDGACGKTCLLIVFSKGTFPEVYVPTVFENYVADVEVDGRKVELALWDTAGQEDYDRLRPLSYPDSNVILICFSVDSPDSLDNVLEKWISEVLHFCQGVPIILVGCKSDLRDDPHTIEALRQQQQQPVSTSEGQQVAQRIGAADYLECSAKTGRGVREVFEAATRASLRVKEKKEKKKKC

As for `CC(C)[C@@H](C)[C@@]1(C)CC[C@]2(C)[C@H]3CC[C@@H]4[C@@]5(COC[C@@]4(C)[C@@H](OC[C@](C)(N)C(C)C)[C@H](n4ncnc4C(=O)N(C)C)C5)C3=CC[C@@]2(C)[C@@H]1C(=O)O` [Example 50, (1S,4aR,6aS,7R,8R,10aR,10bR,12aR,14R,15R)-15-[[(2R)-2-amino-2,3-dimethylbutyl]oxy]-14-[5-[(dimethylamino)carbonyl]-1H-1,2,4-triazol-1-yl]-8-[(1R)-1,2-dimethylpropyl]-1,6,6a,7,8,9,10,10a,10b,11,12,12a-dodecahydro-1,6a,8,10a-tetramethyl-4H-1,4a-propano-2H-phenanthro[1,2-c]pyran-7-carboxylic acid], the IC50 is 12.7 nM.

Regarding `CC(C)[C@@H](C)[C@@]1(C)CC[C@]2(C)[C@H]3CC[C@@H]4[C@@]5(COC[C@@]4(C)[C@@H](OC[C@](C)(N)C(C)C)[C@H](n4ncnc4-c4ccncn4)C5)C3=CC[C@@]2(C)[C@@H]1C(=O)O` [Example 190, (1S,4aR,6aS,7R,8R,10aR,10bR,12aR,14R,15R)-15-[[(2R)-2-amino-2,3-dimethylbutyl]oxy]-8-[(1R)-1,2-dimethylpropyl]-14-[5-(4-pyrimidinyl)-1H-1,2,4-triazol-1-yl]-1,6,6a,7,8,9,10,10a,10b,11,12,12a-dodecahydro-1,6a,8,10a-tetramethyl-4H-1,4a-propano-2H-phenanthro[1,2-c]pyran-7-carboxylic acid], the IC50 is 4.18 nM. For the compound `CC(C)NC(=O)c1ncnn1[C@@H]1C[C@@]23COC[C@](C)([C@@H]2CC[C@H]2C3=CC[C@@]3(C)[C@H](C(=O)O)[C@@](C)([C@H](C)C(C)C)CC[C@]23C)[C@H]1OC[C@](C)(N)C(C)(C)C` [Example 93, (1S,4aR,6aS,7R,8R,10aR,10bR,12aR,14R,15R)-15-[[(2R)-2-amino-2,3,3-trimethylbutyl]oxy]-8-[(1R)-1,2-dimethylpropyl]-14-[5-[[(1-methylethyl)amino]carbonyl]-1H-1,2,4-triazol-1-yl]-1,6,6a,7,8,9,10,10a,10b,11,12,12a-dodecahydro-1,6a,8,10a-tetramethyl-4H-1,4a-propano-2H-phenanthro[1,2-c]pyran-7-carboxylic acid], the IC50 was 20.3 nM. Same read-out and setting: the same measure for `CN[C@@](C)(CO[C@H]1[C@H](n2ncnc2-c2ccncc2)C[C@@]23COC[C@]1(C)[C@@H]2CC[C@H]1C3=CC[C@@]2(C)[C@H](C(=O)O)[C@@](C)([C@H](C)C(C)C)CC[C@]12C)C(C)(C)C` [Example 174, (1S,4aR,6aS,7R,8R,10aR,10bR,12aR,14R,15R)-8-[(1R)-1,2-dimethylpropyl]-14-[5-(4-pyridinyl)-1H-1,2,4-triazol-1-yl]-15-[[(2R)-2,3,3-trimethyl-2-(methylamino)butyl]oxy]-1,6,6a,7,8,9,10,10a,10b,11,12,12a-dodecahydro-1,6a,8,10a-tetramethyl-4H-1,4a-propano-2H-phenanthro[1,2-c]pyran-7-carboxylic acid]: 2.69 nM. Still for that read-out and setting: the same measure for `CCN[C@@](C)(CO[C@H]1[C@H](n2ncnc2C(N)=O)C[C@@]23COC[C@]1(C)[C@@H]2CC[C@H]1C3=CC[C@@]2(C)[C@H](C(=O)O)[C@@](C)([C@H](C)C(C)C)CC[C@]12C)C(C)C` [Example 43, (1S,4aR,6aS,7R,8R,10aR,10bR,12aR,14R,15R)-14-[5-(aminocarbonyl)-1H-1,2,4-triazol-1-yl]-8-[(1R)-1,2-dimethylpropyl]-15-[[(2R)-2-(ethylamino)-2,3-dimethylbutyl]oxy]-1,6,6a,7,8,9,10,10a,10b,11,12,12a-dodecahydro-1,6a,8,10a-tetramethyl-4H-1,4a-propano-2H-phenanthro[1,2-c]pyran-7-carboxylic acid]: 15.5 nM; for `CCC(N)(CC)CO[C@H]1[C@H](n2ncnc2C(=O)NC)C[C@@]23COC[C@]1(C)[C@@H]2CC[C@H]1C3=CC[C@@]2(C)[C@H](C(=O)O)[C@@](C)([C@H](C)C(C)C)CC[C@]12C` [Example 101, (1S,4aR,6aS,7R,8R,10aR,10bR,12aR,14R,15R)-15-(2-amino-2-ethylbutoxy)-8-[(1R)-1,2-dimethylpropyl]-14-[5-[(methylamino)carbonyl]-1H-1,2,4-triazol-1-yl]-1,6,6a,7,8,9,10,10a,10b,11,12,12a-dodecahydro-1,6a,8,10a-tetramethyl-4H-1,4a-propano-2H-phenanthro[1,2-c]pyran-7-carboxylic acid]: 18.7 nM. On the same count and under the same terms, as for `CNC(=O)c1ncnn1[C@@H]1C[C@@]23COC[C@](C)([C@@H]2CC[C@H]2C3=CC(=O)[C@@]3(C)[C@H](C(=O)O)[C@@](C)([C@H](C)C(C)C)CC[C@]23C)[C@H]1OC[C@](C)(NC)C(C)C` [Example 40, (1S,4aR,6aS,7R,8R,10aR,10bR,12aR,14R,15R)-15-[[(2R)-2,3-dimethyl-2-(methylamino)butyl]oxy]-8-[(1R)-1,2-dimethylpropyl]-14-[5-[(methylamino)carbonyl]-1H-1,2,4-triazol-1-yl]-1,6,6a,7,8,9,10,10a,10b,11,12,12a-dodecahydro-1,6a,8,10a-tetramethyl-6-oxo-4H-1,4a-propano-2H-phenanthro[1,2-c]pyran-7-carboxylic acid], the figure is 24.9 nM.

Consider `CNC1(CO[C@H]2[C@H](n3ncnc3-c3ccncc3)C[C@@]34COC[C@]2(C)[C@@H]3CC[C@H]2C4=CC[C@@]3(C)[C@H](C(=O)O)[C@@](C)([C@H](C)C(C)C)CC[C@]23C)CCOCC1` [Example 181, (1S,4aR,6aS,7R,8R,10aR,10bR,12aR,14R,15R)-8-[(1R)-1,2-dimethylpropyl]-14-[5-(4-pyridinyl)-1H-1,2,4-triazol-1-yl]-15-[[tetrahydro-4-(methylamino)-2H-pyran-4-yl]methoxy]-1,6,6a,7,8,9,10,10a,10b,11,12,12a-dodecahydro-1,6a,8,10a-tetramethyl-4H-1,4a-propano-2H-phenanthro[1,2-c]pyran-7-carboxylic acid], for which the IC50 was 10.8 nM. The same measure, in the same setting: the same measure for `CC(C)[C@@H](C)[C@@]1(C)CC[C@]2(C)[C@H]3CC[C@@H]4[C@@]5(COC[C@@]4(C)[C@@H](OC[C@](C)(N)C(C)(C)C)[C@H](n4ncnc4-c4ccc[n+]([O-])c4)C5)C3=CC[C@@]2(C)[C@@H]1C(=O)O` [Example 261, (1S,4aR,6aS,7R,8R,10aR,10bR,12aR,14R,15R)-15-[[(2R)-2-amino-2,3,3-trimethylbutyl]oxy]-8-[(1R)-1,2-dimethylpropyl]-14-[5-(1-oxido-3-pyridinyl)-1H-1,2,4-triazol-1-yl]-1,6,6a,7,8,9,10,10a,10b,11,12,12a-dodecahydro-1,6a,8,10a-tetramethyl-4H-1,4a-propano-2H-phenanthro[1,2-c]pyran-7-carboxylic acid]: 2.68 nM. The compound `CC(C)[C@@H](C)[C@@]1(C)CC[C@]2(C)[C@H]3CC[C@@H]4[C@@]5(COC[C@@]4(C)[C@@H](OC[C@](C)(N)C(C)(C)C)[C@H](n4ncnc4-c4ccncc4)C5)C3=CC[C@@]2(C)[C@@H]1C(=O)O` [Example 173, (1S,4aR,6aS,7R,8R,10aR,10bR,12aR,14R,15R)-15-[[(2R)-2-amino-2,3,3-trimethylbutyl]oxy]-8-[(1R)-1,2-dimethylpropyl]-14-[5-(4-pyridinyl)-1H-1,2,4-triazol-1-yl]-1,6,6a,7,8,9,10,10a,10b,11,12,12a-dodecahydro-1,6a,8,10a-tetramethyl-4H-1,4a-propano-2H-phenanthro[1,2-c]pyran-7-carboxylic acid] had a pIC50 of 9.09.

For the origin of these results see patent publication EP2326172B1, “ANTIFUNGAL AGENTS” (Scynexis, Inc., priority 2008, dated 2010).
